Assay: Microsomal stability of LaKe, rat
Format: in vitro ADME, SD Rat
Protocol: The in vitro stability of LaKe was evaluated following incubation in simulated gastric fluid (SGF), simulated intestinal fluid (SIF), fresh and frozen plasma (rats and humans, respectively), and the presence of hepatocytes (rats and humans) and liver microsomes (rats and humans). At the chosen time points, the mixtures were analyzed by LC-MS/MS to quantify the remaining LaKe and all assays included at least one control compound with known pharmacokinetic properties.
Hepatocyte stability of LaKe
Cells: Rat hepatocytes (BioreclamationIVT, M0005); Human hepatocytes (BioreclamationIVT, X008001) Thawing Medium: Williams’ Medium E containing 5% fetal bovine serum and 30% Percoll solution and other […]
Incubation Medium: Williams’ Medium E (no phenol red) containing 2 mM L-Glutamine and 25 mM HEPES.
Stop Solution: Acetonitrile containing 200 ng/mL tolbutamide and labetalol as internal standards.
Dilution Solution: Ultra-pure water.
Preparation of Quenching Plate: Transfer 125 μL of stop solution (acetonitrile containing 200 ng/mL tolbutamide and 200 ng/mL labetalol as internal standards) in a set of pre-labeled 96-well plates.
Cryopreserved cells were thawed, isolated and suspended in Incubation Medium, then diluted with pre-warmed Incubation Medium to 0.5 × 10^6 cells/mL. 198 μL of pre-warmed cell suspensions were added in 96-well plates. […]

SMILES: CC(O)CCOC(=O)C(C)O (centres unmarked) [LaKe, 3-hydroxybutyl 2-hydroxypropanoate]
- turnover in liver microsomes (presence of NADPH): underwent turnover
- LaKe remaining (rat liver microsomes, absence of NADPH, after 60 min): 55%

Source: paper PMC11403612, “Preparation and Preclinical Characterization of a Simple Ester for Dual Exogenous Supply of Lactate and Beta-hydroxybutyrate” (Journal of Agricultural and Food Chemistry, 2024)
